Source: PMC4140855, “Production of an Attenuated Phenol-Soluble Modulin Variant Unique to the MRSA Clonal Complex 30 Increases Severity of Bloodstream Infection” (PLoS Pathogens, 2014)

Key:
FPR3 = biological target: T1, FPR3 (Homo sapiens, UniProt P25089); experiment: Ca2+ flux in HL60 cells stably transfected with FPR3; assay type: cell-based; conditions: one site-binding model from Ca2+ flux, synthetic peptides, three biological and two technical replicates, error = standard deviation
T1 construct: expressed in transfected cells; host or cells: HL60 cells, stably transfected
T1 sequence (P25089 1-353): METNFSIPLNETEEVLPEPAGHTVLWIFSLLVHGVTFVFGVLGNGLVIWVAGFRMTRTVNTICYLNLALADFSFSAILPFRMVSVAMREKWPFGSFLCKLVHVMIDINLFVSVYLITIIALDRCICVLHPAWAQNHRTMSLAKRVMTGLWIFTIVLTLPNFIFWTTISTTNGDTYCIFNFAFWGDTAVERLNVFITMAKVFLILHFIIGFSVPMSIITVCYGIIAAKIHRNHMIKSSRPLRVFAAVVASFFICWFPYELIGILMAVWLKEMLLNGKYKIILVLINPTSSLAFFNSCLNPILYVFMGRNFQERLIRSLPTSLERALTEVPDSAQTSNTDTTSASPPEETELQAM
Procedure: Next, we analyzed Ca^2+ flux as a general measure to test for neutrophil activation, as used in previous studies. HL60 cells stably transfected with different FPR receptor genes were used to determine which FPR receptors are differentially activated by PSMα3 versus PSMα3N22Y (Fig. 4A). […] At a peptide concentration of 100 nM, we observed a difference of ∼factor 2 in chemotactic activity comparing the two peptides when FPR1 recognition was inhibited by CHIPS, likely attributable to FPR2-mediated recognition. […]
(A) Differential activation of FPRs by PSMα3 versus PSMα3N22Y was measured using synthetic peptides and Ca^2+ flux observed in HL60 cells stably transfected with the corresponding FPR genes as readout, using three biological and two technical replicates. The calculated Kd values are shown on the right. […]
(§1) Human neutrophils were isolated from venous blood of healthy donors as described, [39]. Neutrophil chemotaxis and Ca^2+ flux were determined as previously described, [24]. […] Chemotaxis of neutrophils was determined using a transwell system (Costar) with analysis of neutrophil migration using fluorescence labeling. Calcium fluxes were monitored as a surrogate marker for chemotaxis since it can be measured more robustly and accurately than chemotaxis. […] Measurements of 2,000 events were performed and Ca^2+ flux was expressed as relative fluorescence corrected for buffer controls. […]

human neutrophils = experiment: Chemotaxis of human neutrophils (transwell migration); assay type: cell-based; conditions: synthetic peptides, all tested concentrations, three donors, quadruplicate, compared to PSMα3N22Y
Procedure: Figure 3 PSMα3N22Y has decreased chemotactic activity toward human neutrophils. (A) Chemotaxis of human neutrophils (neutrophil migration) was measured using a transwell system with synthetic peptides at the indicated concentrations. Neutrophils were from three donors and the measurements were performed in quadruplicate. **, p<0.01; ****, p<0.0001. (B) Chemotaxis of human neutrophils tested with culture filtrates (diluted 1∶100) of strains MRSA252 (252, expressing PSMα3N22Y) and 252* (MRSA252 altered to express PSMα3); ****, p<0.0001. Data are from two donors with triplicate measurements. […]
as §1, with “chemotaxis. For measurement of Ca^2+ fluxes, 5×10^6 neutrophils/ml were labeled with a fluorescent dye and analyzed with a FACScalibur (Becton Dickinson) as described.” for “chemotaxis.”

Structure (SMILES)	Kd (FPR3) [nM]	Capacity to cause neutrophil chemotaxis (human neutrophils)
CSCC[C@H](NC=O)C(=O)N[C@@H](CCC(=O)O)C(=O)N[C@@H](Cc1ccccc1)C(=O)N[C@H](C(=O)N[C@@H](C)C(=O)N[C@@H](CCCCN)C(=O)N[C@@H](CC(C)C)C(=O)N[C@@H](Cc1ccccc1)C(=O)N[C@@H](CCCCN)C(=O)N[C@@H](Cc1ccccc1)C(=O)N[C@@H](Cc1ccccc1)C(=O)N[C@@H](CCCCN)C(=O)N[C@@H](CC(=O)O)C(=O)N[C@@H](CC(C)C)C(=O)N[C@@H](CC(C)C)C(=O)NCC(=O)N[C@@H](CCCCN)C(=O)N[C@@H](Cc1ccccc1)C(=O)N[C@@H](CC(C)C)C(=O)NCC(=O)N[C@@H](CC(N)=O)C(=O)N[C@@H](Cc1ccc(O)cc1)C(=O)O)C(C)C [PSMα3N22Y]	953 ± 254	
CSCC[C@H](NC=O)C(=O)N[C@@H](CCC(=O)O)C(=O)N[C@@H](Cc1ccccc1)C(=O)N[C@H](C(=O)N[C@@H](C)C(=O)N[C@@H](CCCCN)C(=O)N[C@@H](CC(C)C)C(=O)N[C@@H](Cc1ccccc1)C(=O)N[C@@H](CCCCN)C(=O)N[C@@H](Cc1ccccc1)C(=O)N[C@@H](Cc1ccccc1)C(=O)N[C@@H](CCCCN)C(=O)N[C@@H](CC(=O)O)C(=O)N[C@@H](CC(C)C)C(=O)N[C@@H](CC(C)C)C(=O)NCC(=O)N[C@@H](CCCCN)C(=O)N[C@@H](Cc1ccccc1)C(=O)N[C@@H](CC(C)C)C(=O)NCC(=O)N[C@@H](CC(N)=O)C(=O)N[C@@H](CC(N)=O)C(=O)O)C(C)C [PSMα3]		about twice higher than that caused by PSMα3N22Y at all tested concentrations
